Tests used:
A549 = assay: cells; format: cell-based, human; conditions: read-out: GI50 A549 lung (+p53)
H1299 = assay: cells; format: cell-based, human
HT29 = assay: cells; format: cell-based, human
MCF7 [1] = assay: cells; format: cell-based, human; conditions: read-out: GI50 MCF7 breast
[2] = test system: ten-member panel of human carcinomas; assay: cells; format: cell-based
CCRF-CEM = assay: NCI 60 Human Tumor Cell Line Anticancer Screen; format: cell-based; conditions: Leukemia
HL-60 (TB) = format: cell-based, human
RPMI-8226 = assay: NCI 60 Human Tumor Cell Line Anticancer Screen; format: cell-based; conditions: RPMI-8226, Leukemia
SR = assay: NCI 60 Human Tumor Cell Line Anticancer Screen; format: cell-based; conditions: Leukemia
EKVX = assay: NCI 60 Human Tumor Cell Line Anticancer Screen; format: cell-based; conditions: Non-small cell lung
HOP-62 = assay: NCI 60 Human Tumor Cell Line Anticancer Screen; format: cell-based; conditions: HOP-62, Non-small cell lung
HOP-92 = assay: NCI 60 Human Tumor Cell Line Anticancer Screen; format: cell-based; conditions: HOP-92, Non-small cell lung
NCI-H23 = assay: NCI 60 Human Tumor Cell Line Anticancer Screen; format: cell-based; conditions: NCI-H23, Non-small cell lung
HCC-2998 = assay: NCI 60 Human Tumor Cell Line Anticancer Screen; format: cell-based; conditions: HCC-2998, Colon
HCT-116 = assay: NCI 60 Human Tumor Cell Line Anticancer Screen; format: cell-based; conditions: HCT-116, Colon
HCT-15 = assay: NCI 60 Human Tumor Cell Line Anticancer Screen; format: cell-based; conditions: HCT-15, Colon
SF-268 = assay: NCI 60 Human Tumor Cell Line Anticancer Screen; format: cell-based; conditions: SF-268, CNS
SNB-19 = assay: NCI 60 Human Tumor Cell Line Anticancer Screen; format: cell-based; conditions: SNB-19, CNS
U251 = assay: NCI 60 Human Tumor Cell Line Anticancer Screen; format: cell-based; conditions: U251, CNS
LOX IMVI = assay: NCI 60 Human Tumor Cell Line Anticancer Screen; format: cell-based; conditions: Melanoma
UACC-62 = assay: NCI 60 Human Tumor Cell Line Anticancer Screen; format: cell-based; conditions: UACC-62, Melanoma
OVCAR-4 = assay: NCI 60 Human Tumor Cell Line Anticancer Screen; format: cell-based; conditions: OVCAR-4, Ovary
NCI/ADR-RES = assay: NCI 60 Human Tumor Cell Line Anticancer Screen; format: cell-based; conditions: Ovary
A498 = assay: NCI 60 Human Tumor Cell Line Anticancer Screen; format: cell-based; conditions: A498, Renal
SN12C = assay: NCI 60 Human Tumor Cell Line Anticancer Screen; format: cell-based; conditions: Renal
TK-10 = assay: NCI 60 Human Tumor Cell Line Anticancer Screen; format: cell-based; conditions: TK-10, Renal
UO-31 = assay: NCI 60 Human Tumor Cell Line Anticancer Screen; format: cell-based; conditions: UO-31, Renal
MCF7 [3] = assay: NCI 60 Human Tumor Cell Line Anticancer Screen; format: cell-based; conditions: MCF7, Breast
HS 578T = assay: NCI 60 Human Tumor Cell Line Anticancer Screen; format: cell-based; conditions: Breast
MDA-MB-468 = assay: NCI 60 Human Tumor Cell Line Anticancer Screen; format: cell-based; conditions: MDA-MB-468, Breast

For CON(CCCCc1ccc(N(CCCl)CCCl)cc1)C1OCC(O)C1O (centres unmarked) [Compound 60], the GI50 (A549) was 1.1 ± 0.1 µM, the “improved activity over the parent drug” value (H1299) was 13 fold and the GI50 (H1299; read-out: GI50 H1299 lung (−p53)) was 0.37 ± 0.04 µM. The “improved activity over the parent drug” value (HT29) was 12 fold, the GI50 (HT29; read-out: GI50 HT29 colorectal) was 0.41 ± 0.06 µM and the GI50 (MCF7 [1]) was 1.8 ± 0.1 µM. For the same compound, the “improvement in average growth inhibition across the cell panel” value [2] was 8 fold, the “increases in potency compared to 1” value [2] was “up to 15 fold” and the GI50 (CCRF-CEM) was 2.36 µM. For the same compound, the “Inhibition at 10 μM” value (CCRF-CEM; 10 μM) was 21.19%, the GI50 (HL-60 (TB)) was 1.88 µM and the “Inhibition at 10 μM” value (HL-60 (TB)) was 68.31%. The “Inhibition at 10 μM” value (RPMI-8226) was 15.94%, the GI50 (SR) was 0.386 µM and the “Inhibition at 10 μM” value (SR; 10 μM) was 48.67%. The GI50 (EKVX) was 37.9 µM, the “Inhibition at 10 μM” value (EKVX; 10 μM) was 91.24% and the GI50 (HOP-62) was 8.28 µM. For the same compound, the “Inhibition at 10 μM” value (HOP-62; 10 μM) was 73.20%, the GI50 (HOP-92) was 4.03 µM and the “Inhibition at 10 μM” value (HOP-92; 10 μM) was 58.81%. The GI50 (NCI-H23) was 7.15 µM, the “Inhibition at 10 μM” value (NCI-H23; 10 μM) was 54.44% and the “Inhibition at 10 μM” value (HCC-2998) was 73.29%. The GI50 (HCT-116) was 14.5 µM, the “Inhibition at 10 μM” value (HCT-116; 10 μM) was 69.37% and the GI50 (HCT-15) was 19.7 µM. The “Inhibition at 10 μM” value (HCT-15; 10 μM) was 77.10%, the GI50 (SF-268) was 5.75 µM and the “Inhibition at 10 μM” value (SF-268; 10 μM) was 67.83%. For the same compound, the GI50 (SNB-19) was 33.4 µM, the “Inhibition at 10 μM” value (SNB-19; 10 μM) was 65.81% and the GI50 (U251) was 13.1 µM. For the same compound, the “Inhibition at 10 μM” value (U251; 10 μM) was 59.94%, the GI50 (LOX IMVI) was 8.61 µM and the “Inhibition at 10 μM” value (LOX IMVI; 10 μM) was 54.82%. For the same compound, the GI50 (UACC-62) was 1.69 µM, the “Inhibition at 10 μM” value (UACC-62; 10 μM) was 52.06% and the GI50 (OVCAR-4) was 29.2 µM. For the same compound, the “Inhibition at 10 μM” value (OVCAR-4; 10 μM) was 77.16%, the GI50 (NCI/ADR-RES) was 4.61 µM and the “Inhibition at 10 μM” value (NCI/ADR-RES; 10 μM) was 61.54%. For the same compound, the GI50 (A498) was 21.8 µM, the “Inhibition at 10 μM” value (A498; 10 μM) was 114.47% and the GI50 (SN12C) was 7.06 µM. The “Inhibition at 10 μM” value (SN12C; 10 μM) was 54.23%, the GI50 (TK-10) was 31.7 µM and the “Inhibition at 10 μM” value (TK-10; 10 μM) was 97.20%. The GI50 (UO-31) was 0.856 µM, the “Inhibition at 10 μM” value (UO-31; 10 μM) was 54.43% and the GI50 (MCF7 [3]) was 4.51 µM. For the same compound, the “Inhibition at 10 μM” value (MCF7 [3]; 10 μM) was 32.40%, the GI50 (HS 578T) was 24.7 µM and the “Inhibition at 10 μM” value (HS 578T; 10 μM) was 139.25%. The GI50 (MDA-MB-468) was 7.25 µM and the “Inhibition at 10 μM” value (MDA-MB-468; 10 μM) was 43.87%.
